Where a name gives a salt, the structure may show the parent alone. Read-outs that look alike come from different tables or passages of the source.
What was measured:
paw swelling = assay: Reverse passive Arthus reaction, inhibition of paw swelling after oral dosing; format: in vivo; settings: rats; for inhibition in vivo at 10 mg/kg / inhibition in vivo at 100 mg/kg / inhibition in vivo at 30 mg/kg: Rattus norvegicus, po; for inhibition in vivo at 10 mg/kg: 10 mg/kg oral; for inhibition in vivo at 100 mg/kg: 100 mg/kg oral
Experimental: The reverse passive Arthus reaction is initiated by the interaction of antigen and antibody resulting in the formation of a precipitating immune complex, followed by fixation of complement, accumulation of leukocytes, edema and hemorrhage. The immunopathology of rheumatoid arthritis involves many of the parameters found in this reaction. Test groups (5 rats per group) are dosed orally with compounds one hour prior to the sub-plantar injection into the right hind paw of rabbit anti-ovalbumin antibody (50 μg/0.1 ml). Immediately afterwards, ovalbumin (Sigma, #5503) (5 mg/0.2 ml) is injected i.v. via the tail vein. The right hind paw volume is measured at hourly intervals, from one to four hours after the injection of the immune reactants. The change in paw volume for each animal is calculated by subtracting zero hour paw volume (before injection) from the paw volume at the time of measurement. The mean of these values is calculated for each group. Results are expressed in Table I below as percent inhibition of paw swelling compared to untreated controls.

human PMN = assay: Chemotaxis of human peripheral leukocytes (human PMN chemotaxis, FMLP as chemoattractant); format: cell-based; settings: Leukocyte, FMLP 1×10^-8 M; for inhibition at 1 µM: read-out: PERCENT INHIBITION (human PMN chemotaxis) 1 μM; for inhibition at 0.01 µM: read-out: PERCENT INHIBITION (human PMN chemotaxis) 0.01 μm
Experimental: A) Equal parts of citrated peripheral venous blood drawn from a normal volunteer were mixed with saline containing 6% dextran. The mixture was allowed to sediment for 30-40 minutes in a 50 ml polypropylene centrifuge tube. B) The plasma was decanted and centrifuged at 1500 rpm for 7 minutes and washed with saline. C) The supernatant was decanted and the contaminating red blood cells were eliminated by adding ice cold lysing solution and allowing the cell suspension to stand on ice for 5 minutes. […] E) The tubes were centrifuged at 400g for 30 minutes at room temperature. F) The supernatant was decanted and the PMNs (pelleted on the bottom of the tubes) were washed with saline and with Hanks buffer. The cells were adjusted to a final concentration of 3×10^6 cells/ml in Hanks buffer containing 0.5% BSA. 1) Chemoattractant: serial dilution was prepared of the stocks (10^-3 M) N-Formyl-methionyl-leucylphenylalanine in Hanks buffer and 130 μl of 1×10^-8 M solution was pipetted into the lower bottom chamber. The bottom chamber of the negative control was filled with saline. 2) Placed Millipore membranes to completely cover the wells and allowed the liquid to absorb. 3) Placed on upper chamber and tighten retaining nuts. 1) Sample preparation: Mixed equal volume of sample diluted in Hanks buffer containing […] and cell suspension in a test tube prior to pipetting 200 μl into appropriate duplicate chambers. 2) Incubated chambers at 37° C. for 40-60 minutes. 10) Three to five fields per membrane were counted with the aid of the Image Analyser (optimal 40-10). Special effort was made to select a standard for evaluating the cell monolayer in which the distribution of cells in the field of view is uniform. The number of cells at each […] level beneath the selected monolayer was then counted and the chemotactic index (CI) calculated by multiplying the individual cell count at each level by their corresponding depth of penetration, and taking the sum of these numbers. 11) The results in Table II are recorded as percent inhibition. Percent inhibition by each thienylbenzylamime was calculated as follows: [formula] The CI of the control was determined by conducting the assay with N-formyl-methionyl-leucylphenylalanine (FMLP) alone without any thienlbenzylamine. The background was determined by conducting the assay without any FMLP.

[1] = 2 h, 2 hours, read-out: % INHIBITION (of paw swelling) HOUR 2
[2] = 3 h, 3 hours, read-out: % INHIBITION (of paw swelling) HOUR 3
[3] = 4 h, 4 hours, read-out: % INHIBITION (of paw swelling) HOUR 4
[4] = 2 h, 30 mg/kg oral, 2 hours, read-out: % INHIBITION (of paw swelling) HOUR 2
[5] = 3 h, 30 mg/kg oral, 3 hours, read-out: % INHIBITION (of paw swelling) HOUR 3
[6] = 4 h, 30 mg/kg oral, 4 hours, read-out: % INHIBITION (of paw swelling) HOUR 4

SMILES	inhibition in vivo at 30 mg/kg (paw swelling; [4]) [%]	inhibition in vivo at 30 mg/kg (paw swelling; [5]) [%]	inhibition in vivo at 30 mg/kg (paw swelling; [6]) [%]	further results
CN(C)Cc1ccccc1C(O)c1ccc(Cl)s1 (stereo not drawn) [Compound 1, 5-chloro-2-[(2-dimethylaminomethylphenyl)hydroxymethyl]thiophene]				inhibition in vivo at 10 mg/kg (paw swelling; [1]): 54%; inhibition in vivo at 100 mg/kg (paw swelling; [1]): 87.5%; inhibition in vivo at 10 mg/kg (paw swelling; [2]): 23.1%; inhibition in vivo at 100 mg/kg (paw swelling; [2]): 71.5%; inhibition in vivo at 10 mg/kg (paw swelling; [3]): 17.1%; inhibition in vivo at 100 mg/kg (paw swelling; [3]): 67.8%
CN(C)Cc1ccccc1C(O)c1cccs1 (stereo not drawn) [Compound 3, 2-[(2-Dimethylaminomethylphenyl)hydroxymethyl]thiophene]	43.3	22.8	0	inhibition at 1 µM (human PMN): 39%; inhibition at 0.01 µM (human PMN): 14%
Cc1ccc(C(O)c2ccccc2CN(C)C)s1 (stereo not drawn) [Compound 4, 2-[(2-dimethylaminomethylphenyl)hydroxymethyl]-5-methyl-thiophene]	43.1	19.8	4.2	inhibition at 1 µM (human PMN): 55%; inhibition at 0.01 µM (human PMN): 12%
CN(C)Cc1ccc(C(O)c2ccccc2CN(C)C)s1 (stereo not drawn) [Compound 10, 5-N,N-dimethylaminomethyl-2-[2-(N,N-dimethylaminomethylphenyl)hydroxymethyl]thiophene]	55.6	21.6	19.4	
Cc1cc(Cl)sc1C(O)c1ccccc1CN(C)C (stereo not drawn) [Compound 13, 5-chloro-2-[(dimethylaminomethylphenyl)hydroxymethyl]-3-methylthiophene]	66.8	24.1	7.3	inhibition in vivo at 100 mg/kg (paw swelling; [1]): 51.7%; inhibition in vivo at 100 mg/kg (paw swelling; [2]): 28.6%; inhibition in vivo at 100 mg/kg (paw swelling; [3]): 3.3%
CN(C)Cc1ccccc1C(O)c1ccc(Br)s1 (stereo not drawn) [Compound 15]	63.1	47.1	26.7	
CN(C)Cc1ccccc1C(O)c1ccc(Cl)s1.O=C(O)/C=C/C(=O)O (stereo not drawn) [Compound 16, 5-chloro-2-[-(2-dimethylaminomethylphenyl)-1-hydroxymethyl]thiophene monofumarate]				% INHIBITION (of paw swelling) HOUR 2 (paw swelling; 30 mg/kg oral, 2 hours): 17%; % INHIBITION (of paw swelling) HOUR 3 (paw swelling; 30 mg/kg oral, 3 hours): 11%; % INHIBITION (of paw swelling) HOUR 4 (paw swelling; 30 mg/kg oral, 4 hours): 0%
CN(C)Cc1ccccc1C(O)c1sccc1Br (stereo not drawn) [Compound 17, 3-bromo-2-[(2-dimethylaminomethylphenyl)hydroxymethyl]thiophene monofumarate]	49	5	0	
CN(C)Cc1ccccc1C(O)c1cc(Br)cs1 (stereo not drawn) [Compound 18, 4-bromo-2-[(2-dimethylaminomethylphenyl)hydroxymethyl]thiophene]	35	37	40	
CN(C)Cc1ccccc1C(O)c1ccc(C2(C)OCCO2)s1 (stereo not drawn) [Compound 19, 2-[(2-dimethylaminomethylphenyl)hydroxymethyl]-5-(1,1-ethylenedioxyethyl) thiophene]	40	37	11	
CC(=O)c1ccc(C(O)c2ccccc2CN(C)C)s1 (stereo not drawn) [Compound 20, 5-acetyl-2-[(2-dimethylaminomethylphenyl)hydroxymethyl]thiophene]	12	15	2	
CN(C)Cc1ccccc1C(O)c1cc(Cl)sc1Cl (stereo not drawn) [Compound 25, 2,5-dichloro-3[(2-N,N-dimethylaminomethylphenyl)hydroxymethyl]thiophene hydrochloride]	68	64	38	
CN(C)Cc1ccccc1C(O)c1cscc1Br (stereo not drawn) [Compound 26, 4-bromo-3-[(2-N,N-dimethylaminomethylphenyl)hydroxymethyl]thiophene hydrochloride]	42	25	6	
CN(C)Cc1ccccc1C(O)c1scc(Br)c1Br (stereo not drawn) [Compound 27, 3,4-dibromo-2-[(2-N,N-dimethylaminomethylphenyl)hydroxymethyl]thiophene hydrochloride]	39	25	10	
CN(C)Cc1ccccc1C(O)c1csc(I)c1 (stereo not drawn) [Compound 28, 5-iodo-3-[(2-N,N-dimethylaminomethylphenyl)hydroxymethyl]thiophene hydrochloride]	21	0	13	
CN(C)Cc1ccccc1C(O)c1cc(I)sc1I (stereo not drawn) [Compound 29, 2,5-diiodo-3-[(2-N,N-dimethylaminomethylphenyl)hydroxymethyl]thiophene hydrochloride]	50	29	0	
CN(C)Cc1ccccc1C(O)c1csc(Cl)c1Cl (stereo not drawn) [Compound 30, 4,5-dichloro-3-[(2-N,N-dimethylaminomethylphenyl)hydroxymethyl]thiophene hydrochloride]	47	36		
CN(C)Cc1ccccc1C(O)c1c(Cl)sc(Cl)c1Cl (stereo not drawn) [Compound 31, 2,4,5-Trichloro-3-[(2-N,N-dimethylaminomethylphenyl)hydroxymethyl]thiophene hydrochloride]	44	32	0	
CN(C)Cc1ccccc1C(O)c1sc(Cl)cc1Cl (stereo not drawn) [Compound 32, 3,5-dichloro-2-[(N,N-dimethylaminomethylphenyl)hydroxymethyl]thiophene hydrochloride]	62	47	12	
CN(C)Cc1ccccc1C(C)(O)c1ccc(Br)s1 (stereo not drawn) [Compound 34, N,N-dimethyl-2-[1-(5-bromothien-2-yl)-1-hydroxyethyl]benzylamine]	66	49	14	
CC(c1ccccc1C(O)c1csc(Br)c1)N(C)C (stereo not drawn) [Compound 35, 5-bromo-3-[2-(1-N,N-dimethylaminoethylphenyl)hydroxymethyl]thiophene]	58	48	9	
CC(c1ccccc1C(O)c1ccc(Cl)s1)N(C)C (stereo not drawn) [Compound 36, 5-chloro-2-[2-(1-N,N-dimethylaminoethylphenyl)hydroxymethyl]thiophene hydrochloride]	52	15	3	
CN(C)Cc1ccccc1C(=O)c1ccsc1 [Compound 37, 3-[2-(2-N,N-dimethylaminomethylphenyl)carbonyl]thiophene]	0	0	0	

Source: patent US5030647A, “Anti-inflammatory thienylbenzylamine compounds” (Boehringer Ingelheim Pharmaceuticals, Inc., priority 1990, dated 1991)
